Assay results published in patent US10357537B2, “Cyclotides as immunosuppressive agents” (priority 2011, dated 2019).
Bridge positions count the residues as written; N and C are the ends. Peptide text beside a SMILES is read from it.

What was measured:
human primary T-cells = experiment: Ca2+ release, Fura-2; assay type: cell-based; details: T20K 4 μM
Procedure: FIG. 17. Ca^2+ release in human Jurkat and T-cells. Jurkat cells (A) and T-cells (B) 1×10^6 were loaded with 1 μM Fura-2 and 0.02% Puronic F-127 for 30 minutes at 37° C. Cells were centrifuged for 5 minutes at 1200 rpm and resuspended in media [RPMI 1640 with 10% FCS, penicillin (100 U/mL) and streptomycin ([…])]. 100 μL of cell suspension were transferred to a black 96-well plate with a clear flat-bottom. Briefly before analysis the fluorometer Synergy H4 (BioTek) was tempered to 37° C. The fluorescence time course was then measured with: extinction 340/380 nm and emission 510 nm in 30 seconds intervals, continuously shaking. Ca^2+ influx was initiated by adding compounds to the cells (illustrated by the arrow). To receive maximum Ca^2+ release cells were stimulated with PMA (50 ng/mL) and Ionomycin (500 ng/mL) and T-cells additionally with PHA-L (10 μg/mL). For lowest Ca^2+ levels, cells remained untreated.
Jurkat cells T-cells were treated as described for FIG. 17, supra.

[1] = system: spleenocytes restimulated with MOG35-55; experiment: Cytokine release of spleenocytes from treated EAE mice, ELISA; assay type: cell-based, mouse
Procedure: FIG. 21. Effect on cytokine release of ex vivo isolated PBMC at day 3. Spleenocytes of sacrificed mice were isolated and restimulated with MOG35-55 (30 μg/mL) for three days or left untreated. Supernatants of these cells were used for analyzing cytokine release in ELISAs. In (A) interleukin 2 release was highest in splenic T-cells isolated from naïve mouse group that were restimulated with MOG, correlating with disease course. […] There was hardly any cytokine IL4 detectable (E), opposing a TH2 immune response, which was expected.
Spleens of sacrificed mice were taken and transferred into a 6 cm Petri Dish with 5 mL sterile PBS. To receive a spleenocyte suspension, spleens were meshed and filtered through 70 μm nylon sieve. Cells were centrifuged at 1200 rpm for 5 minutes and resuspended in RPMI 1640 media supplemented with 10% fetal calf serum (FCS), 2 mM L-glutamine, penicillin (100 U/mL), and streptomycin (100 μg/mL). Spleenocytes were cultivated at a concentration of 3×10^6/mL in a 48-well flat-bottom plate (500 μL/well). Cells were stimulated with 30 μg/mL MOG35-55 or left untreated and incubated at 37° C. for three days. Supernatants and cells were taken stored at −20° C. until further experiments. […] After 12 hours MOG or T20K was added to appropriate wells. Supernatants were stored after 24 hours and after 48 hours at −20° C.
Supernatants of stimulated spleenocytes were analyzed for their IL2, IL17, INFγ, IL4 and IL22 cytokine release using anti-mouse antibodies for ELISA from eBioscience according to the manufacturer's instructions. The color reaction was evaluated at an optical density of 450 nm by the microplate reader Synergy H4 (BioTek).

Structure (SMILES): CC(C)C[C@@H]1NC(=O)CNC(=O)[C@H](CC(N)=O)NC(=O)[C@H](CCCNC(=N)N)NC(=O)[C@H]([C@@H](C)O)NC(=O)[C@@H]2CSSC[C@@H]3NC(=O)[C@H]([C@@H](C)O)NC(=O)CNC(=O)CNC(=O)[C@H](C(C)C)NC(=O)[C@@H]4CSSC[C@H](NC(=O)[C@H](CCCCN)NC(=O)[C@H](CSSC[C@H](NC(=O)[C@H](C(C)C)NC(=O)[C@@H]5CCCN5C1=O)C(=O)NCC(=O)N[C@@H](CCC(=O)O)C(=O)N[C@@H]([C@@H](C)O)C(=O)N4)NC(=O)CNC(=O)[C@@H]1CCCN1C(=O)[C@H]([C@@H](C)O)NC(=O)[C@H](CC(N)=O)NC3=O)C(=O)N[C@@H](CO)C(=O)N[C@@H](Cc1c[nH]c3ccccc13)C(=O)N1CCC[C@H]1C(=O)N[C@@H](C(C)C)C(=O)N2 [Kalata T20K] (cyclo(CGETCVGGTCNTPGCKCSWPVCTRNGLPV); disulfide 1-15, 5-17, 10-22 (inferred); ring closure inferred)
- Ca2+ release in human primary T-cells (human primary T-cells): increasing Ca^2+ release
- IL2 release of spleenocytes from mice treated at day 7 ([1]; T20K (7), after MOG stimulation, vs naive group): IL2 release was lower than in naïve group
- IL17, IL22 and INFγ release of spleenocytes from pre-treated mice ([1]; T20K (-7, 0)): inhibitory effect could also be demonstrated towards the cytokines IL17, IL22 and INFγ in T-cells of T20K (−7, 0) treated mice, although not significantly
- IL2 production of spleenocytes from pre-treated mice ([1]; T20K day -7 or 0, MOG35-55 30 μg/mL, three days): significant inhibition of the IL2 production
